Test results from the supplement of paper PMC10307832.

Legend:
Test in all cases: relative viability (nuclei count vs DMSO), 5 days (fraction); higher = more cells survive
ABC-1 = system: ABC-1
Method in brief: (§1)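 The day after seeding in 1536-well plates, lung cancer cell lines were treated by pin tool with a single drug, or with a fixed anchor-drug dose together with five library-drug doses (not always all listed) in √10 steps. After 5 days, a combined fix-and-stain solution (final 0.05% Triton X-100, 1% formaldehyde, 1 ug/ml Hoechst) was added. Nuclei counted on 4× images gave relative viability as treated counts over vehicle counts, reported as the median of duplicate plates.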

EPLC-272H = system: EPLC-272H
Method in brief: as §1

HARA = system: HARA
Method in brief: as §1

HCC-15 = system: HCC-15
Method in brief: as §1

HCC-78 = system: HCC-78
Method in brief: as §1

LC-2-ad = system: LC-2-ad
Method in brief: as §1

LU99A = system: LU99A
Method in brief: as §1

NCI-H1651 = system: NCI-H1651
Method in brief: as §1

NCI-H1915 = system: NCI-H1915
Method in brief: as §1

NCI-H1993 = system: NCI-H1993
Method in brief: as §1

NCI-H2085 = system: NCI-H2085
Method in brief: as §1

NCI-H2126 = system: NCI-H2126
Method in brief: as §1

NCI-H2342 = system: NCI-H2342
Method in brief: as §1

NCI-H2347 = system: NCI-H2347
Method in brief: as §1

NCI-H358 = system: NCI-H358
Method in brief: as §1

NCI-H460 = system: NCI-H460
Method in brief: as §1

NCI-H522 = system: NCI-H522
Method in brief: as §1

NCI-H650 = system: NCI-H650
Method in brief: as §1

NCI-H838 = system: NCI-H838
Method in brief: as §1

PC-14 = system: PC-14
Method in brief: as §1

For `COc1cc(N2CCC(C(N)=O)CC2)ccc1Nc1nc(N)c(Cl)c(Nc2ccccc2S(=O)(=O)C(C)C)n1` [HG-5-88-01] + NC(=O)Nc1cc(-c2cccc(F)c2)sc1C(=O)N[C@H]1CCCNC1 [AZD7762] (partner 0.2 µM), the relative viability (ABC-1; first compound 0.04 µM) was 0.663, the relative viability (ABC-1; first compound 0.1265 µM) was 0.63 and the relative viability (ABC-1; first compound 0.4 µM) was 0.645. It also gave a relative viability (ABC-1; first compound 1.265 µM) of 0.688, a relative viability (ABC-1; first compound 4 µM) of 0.657 and a relative viability (EPLC-272H; first compound 0.04 µM) of 0.215. The relative viability (EPLC-272H; first compound 0.1265 µM) was 0.222, the relative viability (EPLC-272H; first compound 0.4 µM) was 0.203 and the relative viability (EPLC-272H; first compound 1.265 µM) was 0.234. For the same molecule, the relative viability (EPLC-272H; first compound 4 µM) was 0.0657, the relative viability (HARA; first compound 0.04 µM) was 0.493 and the relative viability (HARA; first compound 0.1265 µM) was 0.313. For the same molecule, the relative viability (HARA; first compound 0.4 µM) was 0.332, the relative viability (HARA; first compound 1.265 µM) was 0.352 and the relative viability (HARA; first compound 4 µM) was 0.322. For the same molecule, the relative viability (HCC-15; first compound 0.04 µM) was 1.27, the relative viability (HCC-15; first compound 0.1265 µM) was 0.595 and the relative viability (HCC-15; first compound 0.4 µM) was 1.15. For the same molecule, the relative viability (HCC-15; first compound 1.265 µM) was 1.3, the relative viability (HCC-15; first compound 4 µM) was 1.04 and the relative viability (HCC-78; first compound 0.04 µM) was 0.576. It also gave a relative viability (HCC-78; first compound 0.1265 µM) of 0.553, a relative viability (HCC-78; first compound 0.4 µM) of 0.472 and a relative viability (HCC-78; first compound 1.265 µM) of 0.361. It also gave a relative viability (HCC-78; first compound 4 µM) of 0.364, a relative viability (LC-2-ad; first compound 0.04 µM) of 0.888 and a relative viability (LC-2-ad; first compound 0.1265 µM) of 0.76. It also gave a relative viability (LC-2-ad; first compound 0.4 µM) of 0.787, a relative viability (LC-2-ad; first compound 1.265 µM) of 0.857 and a relative viability (LC-2-ad; first compound 4 µM) of 0.87. For the same molecule, the relative viability (LU99A; first compound 0.04 µM) was 0.326, the relative viability (LU99A; first compound 0.1265 µM) was 0.336 and the relative viability (LU99A; first compound 0.4 µM) was 0.369. For the same molecule, the relative viability (LU99A; first compound 1.265 µM) was 0.366, the relative viability (LU99A; first compound 4 µM) was 0.295 and the relative viability (NCI-H1651; first compound 0.04 µM) was 0.463. For the same molecule, the relative viability (NCI-H1651; first compound 0.1265 µM) was 0.447, the relative viability (NCI-H1651; first compound 0.4 µM) was 0.439 and the relative viability (NCI-H1651; first compound 1.265 µM) was 0.342. The relative viability (NCI-H1651; first compound 4 µM) was 0.321, the relative viability (NCI-H1915; first compound 0.04 µM) was 0.69 and the relative viability (NCI-H1915; first compound 0.1265 µM) was 0.697. The relative viability (NCI-H1915; first compound 0.4 µM) was 0.689, the relative viability (NCI-H1915; first compound 1.265 µM) was 0.741 and the relative viability (NCI-H1915; first compound 4 µM) was 0.463. The relative viability (NCI-H1993; first compound 0.04 µM) was 0.845, the relative viability (NCI-H1993; first compound 0.1265 µM) was 0.875 and the relative viability (NCI-H1993; first compound 0.4 µM) was 0.77. The relative viability (NCI-H1993; first compound 4 µM) was 0.558, the relative viability (NCI-H2085; first compound 0.04 µM) was 1.08 and the relative viability (NCI-H2085; first compound 0.1265 µM) was 0.969. It also gave a relative viability (NCI-H2085; first compound 0.4 µM) of 0.922, a relative viability (NCI-H2085; first compound 1.265 µM) of 0.964 and a relative viability (NCI-H2085; first compound 4 µM) of 0.667. For the same molecule, the relative viability (NCI-H2126; first compound 0.04 µM) was 0.985, the relative viability (NCI-H2126; first compound 0.1265 µM) was 1.05 and the relative viability (NCI-H2126; first compound 0.4 µM) was 0.961. It also gave a relative viability (NCI-H2126; first compound 1.265 µM) of 1.05, a relative viability (NCI-H2126; first compound 4 µM) of 0.828 and a relative viability (NCI-H2342; first compound 0.04 µM) of 0.47. The relative viability (NCI-H2342; first compound 0.1265 µM) was 0.489, the relative viability (NCI-H2342; first compound 0.4 µM) was 0.447 and the relative viability (NCI-H2342; first compound 4 µM) was 0.408. For the same molecule, the relative viability (NCI-H2347; first compound 0.04 µM) was 0.881, the relative viability (NCI-H2347; first compound 0.1265 µM) was 0.9 and the relative viability (NCI-H2347; first compound 0.4 µM) was 0.82. The relative viability (NCI-H2347; first compound 1.265 µM) was 0.718, the relative viability (NCI-H2347; first compound 4 µM) was 0.804 and the relative viability (NCI-H358; first compound 0.04 µM) was 0.498. It also gave a relative viability (NCI-H358; first compound 0.1265 µM) of 0.503, a relative viability (NCI-H358; first compound 0.4 µM) of 0.451 and a relative viability (NCI-H358; first compound 1.265 µM) of 0.223. For the same molecule, the relative viability (NCI-H358; first compound 4 µM) was 0.245, the relative viability (NCI-H460; first compound 0.04 µM) was 0.7 and the relative viability (NCI-H460; first compound 0.1265 µM) was 0.63. For the same molecule, the relative viability (NCI-H460; first compound 0.4 µM) was 0.561, the relative viability (NCI-H460; first compound 1.265 µM) was 0.611 and the relative viability (NCI-H460; first compound 4 µM) was 0.592. The relative viability (NCI-H522; first compound 0.04 µM) was 0.795, the relative viability (NCI-H522; first compound 0.1265 µM) was 0.842 and the relative viability (NCI-H522; first compound 0.4 µM) was 0.779. The relative viability (NCI-H522; first compound 1.265 µM) was 0.846, the relative viability (NCI-H522; first compound 4 µM) was 0.681 and the relative viability (NCI-H650; first compound 0.04 µM) was 1.04. The relative viability (NCI-H650; first compound 0.1265 µM) was 1.07, the relative viability (NCI-H650; first compound 0.4 µM) was 0.901 and the relative viability (NCI-H650; first compound 1.265 µM) was 1.01. For the same molecule, the relative viability (NCI-H650; first compound 4 µM) was 0.683, the relative viability (NCI-H838; first compound 0.04 µM) was 0.917 and the relative viability (NCI-H838; first compound 0.1265 µM) was 0.958. The relative viability (NCI-H838; first compound 0.4 µM) was 0.881, the relative viability (NCI-H838; first compound 1.265 µM) was 0.749 and the relative viability (NCI-H838; first compound 4 µM) was 0.847. It also gave a relative viability (PC-14; first compound 0.04 µM) of 0.345, a relative viability (PC-14; first compound 0.1265 µM) of 0.315 and a relative viability (PC-14; first compound 0.4 µM) of 0.343. It also gave a relative viability (PC-14; first compound 1.265 µM) of 0.38 and a relative viability (PC-14; first compound 4 µM) of 0.0818.
